Laboratory results published in patent publication US8022061B2, “N-aryl pyrazole compounds, compositions, and methods for their use” (Amgen Inc., priority 2006, dated 2011).

Legend:
Format in all cases: in vivo
ob/ob mice = assay: Increase of circulating insulin concentrations in treated ob/ob mice; conditions: male ob/ob mice, dose 10 mg/kg p.o., 10 minutes after dosing, relative to control group
Experimental: The results presented below exemplify that administration of the compounds as provided herein to an art-recognized animal model of human diabetes can lead to increased circulating insulin concentrations in the animal model.
Male ob/ob mice were weighed and bled from tail vein, and blood glucose levels were determined with a glucometer. Animals were placed into control and treatment groups having similar averages of glucose levels and body weights. In the morning of the following day, animals were dosed with vehicle (control group) or test article (5 ml/kg, p.o.). Blood samples were collected just before and 10 minutes after dosing, and the samples were assayed for insulin and glucose concentrations.
Table 1 provides exemplary data showing the increase of circulating insulin concentrations (expressed as ng/ml) in treated mice relative to control group at 10 minutes after dosing the treated mice. Concentrations of the exemplary compound tested in the mice are provided in the righthand column.

C57B6 mice = assay: Glucose lowering effect after oral glucose challenge in C57B6 mice; conditions: male C57B6 mice, p.o. 30 minutes before oral glucose 3 g/kg; blood glucose before, 20 and 50 minutes after challenge; relative to control group
Experimental: The following example describes the glucose lowering effect of compounds observed in vivo.
Male C57B6 mice were placed into control and treatment groups having similar averages of body weights. Then, animals were dosed with vehicle (control group) or test article (5 ml/kg, p.o.). Thirty minutes after dosing, glucose (3 g/kg) was orally administered in each animal. Blood samples were collected just before, 20 minutes and 50 minutes after glucose challenge and glucose concentrations in the samples was assessed. The values in Table 2 represent the observed % AUC reduction of blood glucose in the treated animals relative to the control group.

[1] = tested on: glucose-challenged animal models of diabetes; assay: Glucose-challenged animal models of diabetes, circulating insulin (FIG. 1); conditions: glucose challenge, treated animals relative to control animals
Experimental: The following example describes how compounds can be evaluated in vivo in glucose-challenged animal models.
Art-recognized animal models of diabetes, such as type 2 diabetes, include diet-induced obese C57BL/6 (“B6”) mice and ob/ob mice. See, e.g., Breyer et al., J. Am. Soc. Nephrol. 16:27-45 (2005) and references cited therein.
Rats (aged 5-20) weeks or mice (aged 6-20 weeks) are fasted overnight beginning at 4 pm. Between 9 and 10 am, glucose levels are determined with a glucometer using whole blood samples removed from the tail. The animals are placed into control and treatment groups having similar averages of glucose levels and body weights or similar averages of body weights (B6 mice). Animals are pre-dosed with vehicle (control group) or test article (5-10 mL/kg, p.o., s.c. or i.p.) and then challenged with glucose (1 g/kg, p.o. or i.p.). Blood samples are then collected from the tail and assay for glucose and insulin levels.

SMILES	Increase in Insulin (ob/ob mice) [ng/mL]	% AUC reduction in glucose levels (C57B6 mice) [%]	circulating insulin levels [1]
CCCCc1c(C(=O)NCc2c(C)ncn2CC(=O)O)cnn1-c1ncc(C)c(-c2cccs2)n1 [(5-{[({5-Butyl-1-[5-methyl-4-(2-thienyl)pyrimidin-2-yl]-1H-pyrazol-4-yl}carbonyl)amino]methyl}-4-methyl-1H-imidazol-1-yl)acetic acid]	3.9	19	–
CCCc1c(C(=O)NC(C)c2ccncc2)cnn1-c1ncc(C)c(-c2cccs2)n1 (centres unmarked) [1-[5-Methyl-4-(2-thienyl)pyrimidin-2-yl]-5-propyl-N-(1-pyridin-4-ylethyl)-1H-pyrazole-4-carboxamide]	3.9	–	increases in circulating insulin levels
CCCc1c(C(=O)NCc2c(CO)ncn2C)cnn1-c1ncc(C)c(-c2cccs2)n1 [N-{[4-(Hydroxymethyl)-1-methyl-1H-imidazol-5-yl]methyl}-1-[5-methyl-4-(2-thienyl)pyrimidin-2-yl]-5-propyl-1H-pyrazole-4-carboxamide]	–	35	–
